Test results published in PubChem BioAssay AID248 (DTP/NCI, 2004).
“And” between values parts separate entries of the source, which are not always exact repeats. Equal entries are not always repeated. Inconclusive results and toxic doses are left out. Cut-off read from the data, not from the text of the source: active = T/C of 150% or more; inactive = T/C below 125%.

Tested on: L1210 leukemia ip in BDF1 mice, survival T/C
Assay: NCI In Vivo Anticancer Drug Screen. Data for tumor model L1210 Leukemia (intraperitoneal) in B6D2F1 (BDF1) mice
Settings: endpoint: mean survival time, higher = longer survival
Method in brief: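 Ratio derived from survival: compound-dosed mice over vehicle-dosed mice, all bearing a transplantable tumor.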

[1] = dose: 100.0 mg/kg/injection, schedule: Q04DX003 (ip), vehicle: Klucel (hydroxypropylcellulose) (HPC)
[2] = dose: 50.0 mg/kg/injection, schedule: Q01DX009 (ip), vehicle: saline
[3] = dose: 100.0 mg/kg/injection, schedule: Q01DX009 (ip), vehicle: saline
[4] = dose: 200.0 mg/kg/injection, schedule: Q01DX009 (ip), vehicle: saline
[5] = dose: 100.0 mg/kg/injection, schedule: Q04DX003 (ip), vehicle: saline
[6] = dose: 200.0 mg/kg/injection, schedule: Q04DX003 (ip), vehicle: saline
[7] = dose: 400.0 mg/kg/injection, schedule: Q04DX003 (ip), vehicle: saline
[8] = dose: 100.0 mg/kg/injection, schedule: Q04DX003 (ip), vehicle: saline with Tween-80
[9] = dose: 200.0 mg/kg/injection, schedule: Q04DX003 (ip), vehicle: saline with Tween-80
[10] = dose: 400.0 mg/kg/injection, schedule: Q04DX003 (ip), vehicle: saline with Tween-80
[11] = dose: 100.0 mg/kg/injection, schedule: Q01DX009 (ip), vehicle: Klucel (hydroxypropylcellulose) (HPC)
[12] = dose: 200.0 mg/kg/injection, schedule: Q01DX009 (ip), vehicle: Klucel (hydroxypropylcellulose) (HPC)
[13] = dose: 400.0 mg/kg/injection, schedule: Q01DX009 (ip), vehicle: Klucel (hydroxypropylcellulose) (HPC)

Measured: T/C

O=C1CC2C3Nc4ccccc4C3CCN2C2=C1CC(OC(=O)c1ccccc1)CC2 (stereo not drawn)
inactive: dose: 12.5 mg/kg/injection, schedule: Q01DX009 (ip), vehicle: saline sonified 96 % of control | dose: 25.0 mg/kg/injection, schedule: Q01DX009 (ip), vehicle: saline sonified 98 % of control | dose: 50.0 mg/kg/injection, schedule: Q01DX009 (ip), vehicle: saline sonified 103 % of control | [1] 95 % of control

N#CCCNC(=O)Nc1cccc2ccccc12
inactive: dose: 100.0 mg/kg/injection, schedule: Q01DX001 (ip), vehicle: carboxymethylcellulose (CMC) 96 % of control | dose: 200.0 mg/kg/injection, schedule: Q01DX001 (ip), vehicle: carboxymethylcellulose (CMC) 100 % of control | dose: 400.0 mg/kg/injection, schedule: Q01DX001 (ip), vehicle: carboxymethylcellulose (CMC) 96 % of control

N#Cc1c(NN)n(C2OC(CO)C(O)C2O)c2ncncc12 (stereo not drawn)
inactive: dose: 100.0 mg/kg/injection, schedule: Q01DX005 (ip), vehicle: saline 106 % of control | dose: 200.0 mg/kg/injection, schedule: Q01DX005 (ip), vehicle: saline 106 % of control

COc1ccc(NNP(=O)(CCl)N(CCCl)CCCl)cc1 (stereo not drawn)
inactive: dose: 100.0 mg/kg/injection, schedule: Q01DX001 (ip), vehicle: Klucel (hydroxypropylcellulose) (HPC) 104 % of control | dose: 200.0 mg/kg/injection, schedule: Q01DX001 (ip), vehicle: Klucel (hydroxypropylcellulose) (HPC) 108 % of control | dose: 400.0 mg/kg/injection, schedule: Q01DX001 (ip), vehicle: Klucel (hydroxypropylcellulose) (HPC) 108 % of control

O=S(=O)(/C=C\c1ccccc1)c1ccccc1
inactive: [2] 102 % of control | dose: 100.0 mg/kg/injection, schedule: Q01DX001 (ip), vehicle: acetone 97 % of control | [3] 97 % of control | dose: 100.0 mg/kg/injection, schedule: Q04DX003 (ip), vehicle: acetone 105 % of control | dose: 200.0 mg/kg/injection, schedule: Q01DX001 (ip), vehicle: acetone 106 % of control | [4] 91 % of control | dose: 200.0 mg/kg/injection, schedule: Q04DX003 (ip), vehicle: acetone 94 % of control | dose: 400.0 mg/kg/injection, schedule: Q01DX001 (ip), vehicle: acetone 97 % of control

CCCCCCCCC1SC1CCCCCCCC(=O)N(C)c1ccccc1 (stereo not drawn)
inactive: [5] 97 % of control | [6] 99 % of control | [7] 94 % of control

CCN=C(N)c1ccc(N=C(N)c2cccc(C(N)=Nc3ccc(C(N)=NCC)cc3)c2)cc1
inactive: dose: 3.75 mg/kg/injection, schedule: Q01DX Z (ip), vehicle: saline 104 % of control | dose: 15.0 mg/kg/injection, schedule: Q01DX Z (ip), vehicle: saline 120 % of control

O=C1N=C2C=CC=CN2CC1O (stereo not drawn)
inactive: [8] 88 % of control | [9] 89 % of control | [10] 89 % of control

Cc1nccc2ccsc12
inactive: dose: 75.0 mg/kg/injection, schedule: Q01DX001 (ip), vehicle: other 105 % of control | dose: 150.0 mg/kg/injection, schedule: Q01DX001 (ip), vehicle: other 102 % of control

CN(CSc1c(Cl)c(Cl)c(Cl)c(Cl)c1Cl)c1ccccc1
inactive: dose: 100.0 mg/kg/injection, schedule: Q04DX002 (ip), vehicle: Klucel (hydroxypropylcellulose) (HPC) 103 % of control | dose: 200.0 mg/kg/injection, schedule: Q04DX002 (ip), vehicle: Klucel (hydroxypropylcellulose) (HPC) 98 % of control | dose: 400.0 mg/kg/injection, schedule: Q04DX002 (ip), vehicle: Klucel (hydroxypropylcellulose) (HPC) 93 % of control

CC(=O)Oc1cc(OC(C)=O)c(Oc2cc(OC(C)=O)c(Oc3cc(OC(C)=O)c(OC(C)=O)c(OC(C)=O)c3)c(OC(C)=O)c2)c(OC(C)=O)c1
inactive: dose: 50.0 mg/kg/injection, schedule: Q04DX003 (ip), vehicle: saline with Tween-80 97 % of control | [8] 95 % of control | [9] 95 % of control

CCCOC(=O)c1ccc(O)cc1
inactive: [11] 87 % of control | [12] 94 % of control | [13] 102 % of control

CCCCOP(=O)(C=C(C(C)=O)C(C)=O)OCCCC
inactive: [1] 95 % of control | dose: 200.0 mg/kg/injection, schedule: Q04DX003 (ip), vehicle: Klucel (hydroxypropylcellulose) (HPC) 119 % of control | dose: 400.0 mg/kg/injection, schedule: Q04DX003 (ip), vehicle: Klucel (hydroxypropylcellulose) (HPC) 97 % of control

O=C(O)CCC(=O)Nc1ccc(F)cc1
inactive: [11] 103 % of control | [12] 93 % of control | [13] 93 % of control

CC(=O)c1ccccc1OC(=S)N(C)C
inactive: [8] 87 % of control | [9] 95 % of control

C=CCOc1ccn(C)c(=O)n1
inactive: [3] 98 % of control | [5] 108 % of control | [4] 101 % of control | [6] 97 % of control | dose: 400.0 mg/kg/injection, schedule: Q01DX009 (ip), vehicle: saline 98 % of control | [7] 111 % of control

c1ccc(CCSCCCSCCc2ccccn2)nc1
inactive: dose: 50.0 mg/kg/injection, schedule: Q04DX002 (ip), vehicle: saline 98 % of control | dose: 100.0 mg/kg/injection, schedule: Q04DX002 (ip), vehicle: saline 98 % of control | dose: 200.0 mg/kg/injection, schedule: Q04DX002 (ip), vehicle: saline 92 % of control | dose: 400.0 mg/kg/injection, schedule: Q04DX002 (ip), vehicle: saline 95 % of control

CCOC(=O)C(CC)C1=CCCCC1 (stereo not drawn)
inactive: dose: 100.0 mg/kg/injection, schedule: Q01DX009 (ip), vehicle: saline with Tween-80 97 % of control | [8] 91 % of control | dose: 200.0 mg/kg/injection, schedule: Q01DX009 (ip), vehicle: saline with Tween-80 103 % of control | [9] 99 % of control | [10] 91 % of control

CN1C(=O)CC2(CCN(CCCC(=O)c3ccc(F)cc3)CC2)C1=O
inactive: dose: 3.12 mg/kg/injection, schedule: Q01DX009 (ip), vehicle: saline 103 % of control and 108 % of control | dose: 6.25 mg/kg/injection, schedule: Q01DX009 (ip), vehicle: Klucel (hydroxypropylcellulose) (HPC) 100 % of control | dose: 6.25 mg/kg/injection, schedule: Q01DX009 (ip), vehicle: saline 100 % of control and 101 % of control and 108 % of control | dose: 12.5 mg/kg/injection, schedule: Q01DX009 (ip), vehicle: Klucel (hydroxypropylcellulose) (HPC) 95 % of control | dose: 12.5 mg/kg/injection, schedule: Q01DX009 (ip), vehicle: saline 106 % of control and 112 % of control and 115 % of control | dose: 25.0 mg/kg/injection, schedule: Q01DX009 (ip), vehicle: Klucel (hydroxypropylcellulose) (HPC) 101 % of control | dose: 25.0 mg/kg/injection, schedule: Q01DX009 (ip), vehicle: saline 110 % of control | dose: 25.0 mg/kg/injection, schedule: Q04DX003 (ip), vehicle: alcohol 108 % of control | dose: 50.0 mg/kg/injection, schedule: Q01DX009 (ip), vehicle: Klucel (hydroxypropylcellulose) (HPC) 110 % of control | [2] 120 % of control and 124 % of control | dose: 50.0 mg/kg/injection, schedule: Q04DX003 (ip), vehicle: alcohol 106 % of control | dose: 100.0 mg/kg/injection, schedule: Q04DX003 (ip), vehicle: alcohol 106 % of control

CCN1C(=O)/C(=C/c2ccncc2)SC1=S
inactive: dose: 50.0 mg/kg/injection, schedule: Q01DX Z (ip), vehicle: carboxymethylcellulose (CMC) 96 % of control | dose: 100.0 mg/kg/injection, schedule: Q01DX Z (ip), vehicle: carboxymethylcellulose (CMC) 92 % of control | dose: 200.0 mg/kg/injection, schedule: Q01DX Z (ip), vehicle: carboxymethylcellulose (CMC) 94 % of control | dose: 400.0 mg/kg/injection, schedule: Q01DX Z (ip), vehicle: carboxymethylcellulose (CMC) 91 % of control
